# In publication PMC11478212, “Antitumoral and Antiproliferative Potential of Synthetic Derivatives of Scorpion Peptide IsCT1 in an Oral Cavity Squamous Carcinoma Model” (Molecules, 2024):
# “And” between values parts separate entries of the source, which are not always exact repeats. Equal values may be shown once. “Also recorded” adds a separate entry of the source. Read-outs that look alike come from different tables or passages of the source.
# What was measured:
# [1] = Resistance to degradation in 25% fetal bovine serum; type: in vitro ADME; conditions: 25% fetal bovine serum in water, 37 °C, HPLC peak area vs t = 0 h, triplicate
# Protocol: (§1) Figure 1 (a) Helical wheel projections of the IsCT1, AFPK-IsCT1, KKK-IsCT1, and IsCT-P peptides were generated using the Heliquest server (https://heliquest.ipmc.cnrs.fr/, accessed on 15 July 2024). In these projections, yellow, gray, and green circles represent hydrophobic amino acids, while blue and pink circles denote hydrophilic amino acids. (b) Resistance to degradation assays for all peptides were performed over 6 h in a solution containing 25% fetal bovine serum (FBS). These experiments were conducted in triplicate and aliquots were collected for analysis at 0, 0.5, 1, 2, 4, and 6 h of incubation. The aliquots were subsequently analyzed using high-performance liquid chromatography (HPLC) after each incubation period. The degradation kinetics of the peptides were determined by comparing the integrated peak area associated with the peptide at the start of the experiment (t = 0 h) with the integrated peak area at subsequent time points (t = 0.5, 1, 2, 4, 6 h). (c) The hemolytic activity of synthetic peptides analogous to IsCT1 was assessed on human erythrocytes within a concentration range of 0.13–128 μmol L^−1 in phosphate-buffered saline (PBS) (n = 3). A 1% solution of sodium dodecyl sulfate (SDS) in PBS served as a positive control, while PBS alone was used as a negative control. (d) A table summarizing the sequences, molecular weights, and physicochemical properties of the IsCT1, AFPK-IsCT1, and KKK-IsCT1 peptides. […]
# Stability assays were conducted using GIBCO (Waltham, MA, USA) fetal bovine serum diluted to 25% in water, as described by Torres et al.. Briefly, peptide solutions were added to the serum solution and maintained at 37 °C. The experiments were carried out in triplicate and samples were taken at 0, 0.5, 1, 2, 4, and 6 h post incubation. The degradation kinetics were monitored using liquid chromatography and the percentage of remaining peptides was calculated by integrating the peak area of the peptide.
# [2] = tested on: J774 cells; test: MTT cell viability; type: cell-based; conditions: J774 normal macrophages, treatment 24 and 48 h (time of IC50 not given), absorbance 540 nm, N/IC50 = no IC50 for the tested concentrations, no toxicity
# Protocol: (§2) Cell survival was assessed using an MTT assay. Tumor (SSC-9 and SSC-25) and normal cells (FN1 and J-774) were incubated in 96-well plates at a density of 10^5 cells/mL for 24 h. Subsequently, treatments were administered as described in Table 1 for 24 and 48 h. After the treatment period, the supernatant was aspirated and 100 μL of MTT at a concentration of 5 mg/mL (Calbiochem—Darmstadt, Germany) was added to the plate and incubated for 3 h at 37 °C with 5% CO2. Afterward, the content was removed and 200 μL of methanol was added to dissolve the formazan crystals. Absorbance was then measured at a wavelength of 540 nm using a microplate reader. The hemolysis assay was performed as previously reported.
# [3] = tested on: FN1 cells; test: MTT cell viability; type: cell-based; conditions: FN1 normal human fibroblasts, treatment 24 and 48 h (time of IC50 not given), absorbance 540 nm, N/IC50 = no IC50 for the tested concentrations, no toxicity
# Protocol: as §2
# [4] = tested on: SCC-9 cells; test: MTT cell viability; type: cell-based; conditions: treatment 24 and 48 h (time of IC50 not given), absorbance 540 nm, N/IC50 = no IC50 for the tested concentrations, no toxicity, read-out: IC50
# Protocol: as §2
# [5] = tested on: SCC-25 cells; test: MTT cell viability; type: cell-based; conditions: treatment 24 and 48 h (time of IC50 not given), absorbance 540 nm, N/IC50 = no IC50 for the tested concentrations, no toxicity, read-out: IC50
# Protocol: as §2
# [6] = tested on: SCC-9 tumor cells; test: CFSE-DA proliferation assay (flow cytometry); type: cell-based; conditions: 24 h, IsCT-P and AC-AFPK-IsCT1 at IC50, other peptides at 100 µM, mean ± SD of three independent experiments
# Protocol: (§3) Figure 2 Assessment of the cellular proliferative index was conducted using flow cytometry following a 24 h treatment with synthetic analogs of the IsCT1 peptide. The treatments were performed using the IC50 values obtained for the IsCT-P and AC-AFPK-IsCT1 peptides and at a concentration of 100 µM for the other peptides. (a) Representative histograms of the proliferative index were analyzed using WinMDI 5.0 software. Each color in the histogram represents a new cell population. (b) Bar graphs represent the mean ± SD of the proliferative index for SCC-9 tumor cells derived from three independent experiments. (c) Bar graphs display the mean ± SD of the proliferative index for SCC-25 tumor cells based on three independent experiments. (d) Bar graphs represent the mean ± SD of the proliferative index for normal FN1 cells from three independent experiments. (e) Bar graphs illustrate the mean ± SD of the proliferative index for normal J774 cells from three independent experiments. Statistical differences were determined using ANOVA and Tukey–Kramer multiple comparison tests. Significance levels are indicated as * p < 0.05, ** p < 0.01, and *** p < 0.001, with ‘ns’ denoting not significant.
# (§4) Tumor (SSC-9 and SSC-25) and normal cells (FN1 and J-774) were plated in 24-well plates at a density of 10^5 cells/mL for 24 h. The treated and control groups were incubated with the carboxyfluorescein marker (CFSE-DA Thermo Fisher (Waltham, MA, USA), KITC34571). CFSE-DA was diluted in PBS + 0.1% human albumin and added to the cell-containing medium. After 24 h of treatment, the cells were trypsinized, transferred to a conical tube, and centrifuged at 1500 rpm for 5 min. The supernatant was discarded and the pellet was resuspended in 1 mL of 4% paraformaldehyde in PBS for 30 min. The cells were then centrifuged, the supernatant was discarded, and the pellet was resuspended in 200 μL of FACS buffer. Readings were performed on a FACScanto flow cytometer (BD, Franklin Lakes, NJ, USA) with the number of events set to 10,000 events, and histograms were acquired and analyzed using ModFit LT 5.0 software.
# [7] = tested on: SCC-25 tumor cells; test: CFSE-DA proliferation assay (flow cytometry); type: cell-based; conditions: 24 h, IsCT-P and AC-AFPK-IsCT1 at IC50, other peptides at 100 µM, mean ± SD of three independent experiments
# Protocol: as §3, §4
# [8] = tested on: human erythrocytes; test: Hemolytic activity assay; type: cell-based; conditions: 0.13–128 μmol L−1 in PBS, n = 3; 1% SDS positive control, PBS negative control
# Protocol: as §1, with “3).” for “3). A 1% solution of sodium dodecyl sulfate (SDS) in PBS served as a positive control, while PBS alone was used as a negative control. (d) A table summarizing the sequences, molecular weights, and physicochemical properties of the IsCT1, AFPK-IsCT1, and KKK-IsCT1 peptides.”
# Cell survival was assessed using an MTT assay. […] Absorbance was then measured at a wavelength of 540 nm using a microplate reader. […]
Substance,"remaining at 1 h ([1]; 1 h, read-out: peptide remaining intact after 1 h) [%]","remaining at 4 h ([1]; 4 h, read-out: peptide remaining intact after 4 h) [%]",IC50 [2],IC50 ([3]; read-out: IC50),IC50 [4] [µM],IC50 [5],reduction in the proliferative index [6] [%],decrease in the proliferative index [7] [%],hemolytic activity [8],metabolised at 0.5 h ([1]; 30 min) [%],IC50 [3]
H-ILKKIWKPIKKLF-NH2 [IsCT-P],70,18,N/IC50,80.3 µM and 80.4 µM,96.5,81.3 µM,61.8 ± 8.7,61.1 ± 2.8,caused the hemolysis,,
Ac-ALGKFWPKIKSLF-NH2 [AC-AFPK-IsCT1],,,N/IC50,,90.5,84.4 µM and 84.5 µM,61.6 ± 1.7,40.9 ± 2.5,did not show hemolytic activity at high concentrations,18,did not exhibit cytotoxic effects; also recorded: N/IC50
